# Measurements: ChEMBL document CHEMBL3046312, “Synthesis and biologic evaluation of new 3-phenoxyazetidin-2-one derivatives as selective cyclooxygenase-2 inhibitors” (Med Chem Res, 2013)
# Biological target: T1, Prostaglandin G/H synthase 1 (Ovis aries, UniProt P05979)
# T1 sequence (P05979 whole entry): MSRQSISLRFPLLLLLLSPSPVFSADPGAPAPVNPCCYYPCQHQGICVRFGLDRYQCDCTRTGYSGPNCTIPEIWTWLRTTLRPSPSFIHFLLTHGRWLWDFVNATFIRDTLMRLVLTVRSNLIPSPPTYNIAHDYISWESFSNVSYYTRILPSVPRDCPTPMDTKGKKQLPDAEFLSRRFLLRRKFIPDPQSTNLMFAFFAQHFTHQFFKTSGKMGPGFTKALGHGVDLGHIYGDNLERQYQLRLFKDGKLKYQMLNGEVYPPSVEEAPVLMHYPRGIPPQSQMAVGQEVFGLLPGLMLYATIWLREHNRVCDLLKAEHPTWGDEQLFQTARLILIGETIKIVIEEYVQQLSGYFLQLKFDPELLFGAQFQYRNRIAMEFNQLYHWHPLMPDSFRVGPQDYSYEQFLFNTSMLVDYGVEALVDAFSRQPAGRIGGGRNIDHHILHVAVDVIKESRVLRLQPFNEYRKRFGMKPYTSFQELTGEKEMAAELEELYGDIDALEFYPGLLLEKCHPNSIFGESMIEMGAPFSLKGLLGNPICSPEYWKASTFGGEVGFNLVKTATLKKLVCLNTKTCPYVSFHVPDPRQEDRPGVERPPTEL
# Test: Inhibition of Ovis aries (sheep) cyclooxygenase-1 using arachidonic acid as substrate by chemiluminescent assay
row,SMILES,IC50
1,CS(=O)(=O)c1ccc([C@@H]2[C@H](Oc3ccccc3)C(=O)N2C2CCCCC2)cc1 (relative stereo),19.5 µM
2,CC(C)N1C(=O)[C@@H](Oc2ccccc2)[C@H]1c1ccc(S(C)(=O)=O)cc1 (relative stereo),21.8 µM
3,CCCCN1C(=O)[C@@H](Oc2ccccc2)[C@H]1c1ccc(S(C)(=O)=O)cc1 (relative stereo),20.9 µM
4,CCCCCN1C(=O)[C@@H](Oc2ccccc2)[C@H]1c1ccc(S(C)(=O)=O)cc1 (relative stereo),21.2 µM
5,CS(=O)(=O)c1ccc([C@@H]2[C@H](Oc3ccccc3)C(=O)N2c2ccc(F)cc2)cc1 (relative stereo),19 µM
6,CS(=O)(=O)c1ccc([C@@H]2[C@H](Oc3ccccc3)C(=O)N2c2ccccc2)cc1 (relative stereo),19.9 µM

# Continued by falling IC50, values first:
row,IC50,SMILES
1,21.7 µM,CCCN1C(=O)[C@@H](Oc2ccccc2)[C@H]1c1ccc(S(C)(=O)=O)cc1 (relative stereo)
2,19.2 µM,COc1ccc(N2C(=O)[C@@H](Oc3ccccc3)[C@H]2c2ccc(S(C)(=O)=O)cc2)cc1 (relative stereo)
3,18.3 µM,CS(=O)(=O)c1ccc([C@@H]2[C@H](Oc3ccccc3)C(=O)N2c2ccc(Cl)cc2)cc1 (relative stereo)
4,18.1 µM,Cc1ccc(N2C(=O)[C@@H](Oc3ccccc3)[C@H]2c2ccc(S(C)(=O)=O)cc2)cc1 (relative stereo)
